# Assay results: patent US20220408724A1, “METHOD FOR CONTROLLING METABOLISM OF BRANCHED FATTY ACID” (KAO CORPORATION, priority 2019, published 2022)
# “And” between values parts separate entries of the source, which are not always exact repeats. Identical values can stand only once.
# Experiments:
# Assay type in all cases: cell-based
# Staphylococcus aureus [1] = test: Measurement of viable bacterial count on fabric
# Procedure: After culture on fabric prepared in the same manner as in the above (1), 9 mL of an LP diluent (manufactured by NIHON PHARMACEUTICAL CO., LTD.) was added, and the extraction of the bacteria was carried out under ultrasound for 10 minutes. The extraction liquid was poured and mixed to an SCD-LP agar medium (NIHON PHARMACEUTICAL CO., LTD.), and culture was thereafter carried out at 37° C.; for a day. The number of colonies obtained on each piece of the fabric was counted, and a common logarithm value thereof was measured as the viable bacterial count. […] In addition, the […], the more the viable bacterial count of the microorganism is maintained.
# (§1) The metabolism of 14-methylhexadecanoic acid by bacteria of the genus Staphylococcus (Staphylococcus aureus) was tested in the same manner as in example 1.
# (§2) In this example, Staphylococcus aureus (strain isolated from clothing) was used as a microorganism.
# (§3) Further, in this example, a bacterial suspension of 10^7 (CFU/ml) prepared by using an NB liquid medium diluted to 1/10 with ion exchange water was used as a bacterial suspension.
# (§4) Note that, in this example, C12OH (1-dodecanol) was used as the metabolism controlling agent.
# Staphylococcus aureus [2] = test: Suppression of metabolite 4-methylhexanoic acid from 14-methylhexadecanoic acid
# Procedure: (§5) After culture on fabric prepared in the same manner as in the above (1), 3 ml of methanol was added, and extraction was carried out under ultrasonic irradiation for 30 minutes (20° C.). The extraction liquid was mixed with (a 1000 ppm methanol solution of) an ADAM reagent of Funakoshi Co., Ltd. at 1:1 (volume ratio) and left overnight under room temperature and dark place conditions. After that, 4-methyl-3-hexenoic acid as a metabolite from 14-methylhexadecanoic acid was quantified by HPLC. The quantification conditions are as follows.
# (§6) The production amount of 4-methyl-3-hexenoic acid after culture on the fabric to which each metabolism controlling agent was added was quantified, and the ratio of the production amount to that of 4-methyl-3-hexenoic acid in the case of adding no metabolism controlling agent (control) was calculated as a metabolite suppression rate (%). The higher a numerical value thereof is, the more the metabolism is suppressed. Note that the metabolite suppression rate was determined by the following formula:
# (§7) Metabolite suppression rate(%)=100×[(D−C)/D] • C: production amount of metabolite of example or comparative example (μg/fabric g) • D: production amount of metabolite of control (μg/fabric g)
# as §1, §2, §3
# Further, in this example, 4-methylhexanoic acid was quantified as a metabolite from 14-methylhexadecanoic acid, and the metabolite suppression rate was determined in the same manner as in example 1.
# as §4
# Staphylococcus aureus [3] = test: Suppression of metabolism of 14-methylhexadecanoic acid on cotton fabric; conditions: agent 250 μg/fabric g
# Procedure: (§8) A methanol solution in which 14-methylhexadecanoic acid (SIGMA-ALDRICH) was dissolved was added dropwise to 3 cm×3 cm pieces of sterilized plain-weave cotton fabric to make it adhered to the fabric. The adhesion amount of 14-methylhexadecanoic acid was set to 10 μg per piece of the plain-weave cotton fabric (100 μg/fabric g).
# (§9) Further, a methanol solution in which each metabolism controlling agent was dissolved was prepared and added dropwise to the fabric to which 14-methylhexadecanoic acid adhered, and it was thereafter dried for an hour. This fabric was placed in a sterilized screw tube bottle No. 3 (Maruemu Corporation) and 100 μl of the bacterial suspension was inoculated thereto, and culture was carried out under 37° C.; conditions for 21 hours.
# (§10) 3 ml of methanol was added to the screw tube bottle after culture, and extraction was carried out under ultrasonic irradiation for 30 minutes (20° C.). The extraction liquid was mixed with a (trimethylsilyl)diazomethane hexane solution (FUJIFILM Wako Pure Chemical Corporation) at 9:1 (volume ratio) and left overnight under room temperature and dark place conditions. After that, 14-methylhexadecanoic acid remaining on the fabric was quantified by GC. The quantification conditions for GC are as follows. • GC: Agilent 7890A • GC column: Agilent DB-1 30 m×250 μm×0.25 μm • Temperature rise condition: 50° C. (held for 3 minutes)-(10° C./min)-300° C. (held for 5 minutes) • Sample injection volume: 1 μl • Split ratio: 1:12 • Detector: FID
# as §6, with “residual” for “production”, “14-methylhexadecanoic” for “4-methyl-3-hexenoic”, “the” for “each”, “metabolism” for “metabolite”
# (§11) Metabolism suppression rate(%)=[1−(100−A)/(100−B)]×100 • A: residual amount of 14-methylhexadecanoic acid of example or comparative example (μg/fabric g) • B: residual amount of 14-methylhexadecanoic acid of control (μg/fabric g)
# as §1, §2, §3
# Micrococcus aloeverae [4] = test: Suppression of metabolite 2-methylbutanoic acid from 14-methylhexadecanoic acid
# Procedure: as §5, §6, §7
# (§12) The metabolism of 14-methylhexadecanoic acid by bacteria of the genus Micrococcus was tested in the same manner as in example 1.
# (§13) In this example, Micrococcus aloeverae (strain isolated from clothing) was used as a microorganism.
# (§14) Further, in this example, a bacterial suspension of 10^7 (CFU/ml) prepared by using an SCD liquid medium (NIHON PHARMACEUTICAL CO., LTD.) diluted to 1/10 with ion exchange water was used as a bacterial suspension.
# Further, in this example, 2-methylbutanoic acid was quantified as a metabolite from 14-methylhexadecanoic acid, and the metabolite suppression rate was determined in the same manner as in example 1.
# as §4
# Micrococcus aloeverae [5] = test: Suppression of metabolism of 14-methylhexadecanoic acid on cotton fabric
# Procedure: as §8, §9, §10
# as §6, with “residual” for “production”, “14-methylhexadecanoic” for “4-methyl-3-hexenoic”, “the” for “each”, “metabolism” for “metabolite”
# as §11, §12, §13, §14, §4
compound,measurement,setting,value
"CCCCCCCCCCCCO [Example C12OH, 1-dodecanol]",Bacterial count (Log (cfu/fabric cm^2)),Staphylococcus aureus [1]; agent 100 μg/fabric g,6.4 Log (cfu/fabric cm^2)
same,Bacterial count (Log (cfu/fabric cm^2)),Staphylococcus aureus [1]; agent 500 μg/fabric g,6.2 Log (cfu/fabric cm^2)
same,Metabolite suppression rate (%),Staphylococcus aureus [2]; agent 100 μg/fabric g,10.00%
same,Metabolite suppression rate (%),Staphylococcus aureus [2]; agent 250 μg/fabric g,74% and 64.10%
same,Metabolite suppression rate (%),Staphylococcus aureus [2]; agent 500 μg/fabric g,93.20%
same,Metabolism suppression rate (%),Staphylococcus aureus [3],75%
same,Metabolite suppression rate (%),Micrococcus aloeverae [4]; agent 100 μg/fabric g,21%
same,Metabolite suppression rate (%),Micrococcus aloeverae [4]; agent 250 μg/fabric g,79% and 74%
same,Metabolite suppression rate (%),Micrococcus aloeverae [4]; agent 500 μg/fabric g,75%
same,Metabolite suppression rate (%),Micrococcus aloeverae [4]; agent 1000 μg/fabric g,75%
same,Metabolism suppression rate (%),Micrococcus aloeverae [5]; agent 100 μg/fabric g,16.7%
same,Metabolism suppression rate (%),Micrococcus aloeverae [5]; agent 250 μg/fabric g,73% and 55.0%
same,Metabolism suppression rate (%),Micrococcus aloeverae [5]; agent 500 μg/fabric g,85.8%
same,Metabolism suppression rate (%),Micrococcus aloeverae [5]; agent 1000 μg/fabric g,86.9%
